In US9408845B2, “Formulations containing pyridazine compounds” (Northwestern University, priority 2006, dated 2016):
Entries after “also recorded” stand apart in the source; their conditions may differ. Read-outs that look alike come from different tables or passages of the source.

Columns and labels:
[1] = system: human Aβ infusion mouse model; assay: Human Aβ infusion mouse model, Y maze behavioral assay; type: in vivo; settings: 1.25, 2.5, 5, and 10 mg/kg
From the text: (§1) Once per day treatment will begin at day 21 after start of Aβ ICV infusion and continue for 14 days. Beginning at day 50 after start of Aβ ICV infusion, the Y maze test of spontaneous alternation will be used to evaluate hippocampus dependent spatial learning as described previously (Craf et al., J Mol. Neurosci. 24:115-122, 2004a). Briefly, each mouse will be placed in the “start” arm and then released to choose one of the two other arms. The mouse will be blocked from exiting the chosen arm for 30 s then they will be placed back in the start arm and released again to choose one of the two other arms. If the second choice is different from the first one, the mouse will be scored as alternating. Mice will be tested for 10 days with one trial per day, and a mean percent alternation will be calculated for each mouse. […] The brain will be removed and longitudinally bisected as described previously (Craft et al., Neurobiolo Aging 25:12834292, 2004b). […] The hippocampus will be dissected from the left half of the brain and snap-frozen for subsequent biochemical evaluation.

[2] = system: LPS-induced IL-1β production in BV-2 microglia cells; assay: LPS-induced IL-1β production in BV-2 microglial cells; settings: Mus musculus, BV-2, 16 h, read-out: IL-1β, concentration required for 50% inhibition
[3] = system: QT interval in Lead II electrocardiogram, anesthetized guinea pigs; assay: Cardiac QT interval prolongation assay in anesthetized guinea pigs; settings: 15 mg/kg PO
Method: The QT interval studies are performed by evaluating compounds for effects on QT interval in Lead II electrocardiograms measured in anesthetized guinea pigs (Hirohashi et al., 1991, Arzneim.-Forsch./Drug Res 41:9-18), one of the species recommended in the FDA white paper. Vehicle or compound is administered orally at 15 mg/kg (dosing volume of 10 ml/kg) to groups of male guinea pigs (weighing 330-350 g), with 5 animals per group. […] Heart rate, arterial blood pressure, and QT intervals are measured at baseline, and at 15, 30, 45, and 60 min after compound administration. Sotalol administered iv at 0.3 mg/kg serves as the positive control compound. The QT intervals are corrected for changes in heart rate using both Bazetes and Fridericia's formulae. Any increase in QT interval values over baseline values exceeding the upper 95% confidence limit of the mean changes at the corresponding time point in the vehicle-treated control group for two consecutive observation times indicates significant QT interval prolongation in the individually treated animals.
The QT intervals (QTc) were corrected for changes in heart rate using both Bazett's and Fridericia's formulae.
The test substance was dissolved in 2% Tween 80 and administered by oral administration. The substance was treated at 15 mg/kg with a dosing volume of 10 ml/kg. Duncan Hartley derived guinea pigs provided by MDS Pharma Services—Taiwan Ltd were used. Sotalol was obtained from Sigma, USA.
Groups of guinea pigs (weighing 330-350 g) with 5 animals each were employed. The animals were anesthetized with urethane (1500 mg/kg, IV bolus injection in a volume of 5 ml/kg) and breathed spontaneously. Lead II ECG was obtained with subdermal needle electrodes and ECG signal conditioner. Heart rate was measured with a pulse rate tachometer. The carotid artery was cannulated with a catheter that was connected to a pressure transducer and a pressure processor for measurements of arterial blood pressure (BP). […] QTC intervals were obtained by correction for heart rate changes using Bazett's and Fridericia's formulae. Increase in QTc interval in individual treated guinea pigs that lies outside the upper limit of 95% confidence limits (mean±SD) of the changes for the vehicle-treated control at corresponding time points for two consecutive times is considered significant.

[4] = system: human Aβ infusion mouse model; assay: Human Aβ infusion mouse model, hippocampal neuroinflammation and synaptic biochemical endpoints; type: in vivo; settings: hippocampus, Aβ-infused mice, oral compound
Method: The study design and treatment paradigm for intracerebroventricular (ICV) infusion of human oligomerie Aβ1-42 into the mouse will be as described previously (Craft et al., Neurobiol Aging 25:1283-1292, 2004b), except that compound administration will be by mouth. Female C57Bl/6 mice (Harlan) weighing 20-25 g (3-4 months old) will be housed in a pathogen free facility under an approximate 12 h/12 h dark and light cycle and they will have access ad libitum to food and water.
as §1
S100B levels in hippocampal supernatants will be measured by a empium-based ELISA essentially as previously described (Van Eldik and Griffin, Biochem Biophys Acta 1223:398-403, 1994). Synaptophysin levels in hippocampal supernatants will be quantified by ELISA following the procedure described previously (Craft at al, 20041, supra). PSD-95 levels will be determined by Western blots using anti-PSD-95 antibodies (1:100,000 dilution; Upstate Biotechnology) as described (Craft et al., 2004b).
It was previously shown that Aβ-induced neuroinflammation is an early event associated with the onset and progression of pathophysiology, and can be suppressed by an inhibitor of glial activation. Female C57Bl/6 mice (Harlan) weighing […] (3-4 months old) were housed in a pathogen free facility under an approximate 12 h/12 h dark and light cycle and had access ad libitum to food and water. All animal procedures were approved by the Northwestern Animal Care and Use Committee.

liver histology, mice = assay: Chronic, therapeutic dose liver toxicity assay
From the text: (§2) Mice will be anesthetized and sacrificed as described above. Livers will be removed, fixed in 4% (v/v) paraformaldehyde and paraffin-embedded for histology. To assess histological toxicity, 4 μm liver sections will be stained with haematoxylin and eosin. Two independent observers blinded to the treatment groups will perform microscopic assessment of the tissue for injury.
After two weeks of treatment, mice are sacrificed and liver toxicity analyzed as described above. For each chronic toxicity assay, 5 mg of compound is required.
as §2, with “were” for “will be”, “killed” for “sacrificed”, “paraformaldehyde,” for “paraformaldehyde”, “pan” for “μm”, “hematoxylin” for “haematoxylin”, “performed” for “will perform”

[5] = system: nitric oxide (NO) production in BV-2 microglial cells; assay: LPS-stimulated accumulation of nitrite (NO metabolite) in BV-2 cells, Griess assay; type: cell-based, mouse; settings: Mus musculus, read-out: NO, concentration required for 50% inhibition
[6] = mouse, in vivo
[7] = Caccia et al., 1985; cited from earlier work

| SMILES | prevention of Y-maze behavioral deficit [1] | loss of PSD-95 [4] | loss of synaptophysin [4] | up-regulation of IL-1β [4] | up-regulation of S100B [4] | liver toxicity score versus control mice (liver histology, mice; mouse, in vivo, po, […]) | also measured |
| --- | --- | --- | --- | --- | --- | --- | --- |
| Cc1cc(-c2ccccc2)nnc1N1CCN(c2ncccn2)CC1 [MW01-2-151SRM, 4-methyl-6-phenyl-3-(4-pyrimidin-2-ylpiperazin-1-yl)pyridazine] | significantly effective | prevented | prevented | blocked | blocked | no significant differences | IC50 [2]: 8.3 ± 5.8 µM; effect on heart rate [3]: no significant effects; effect on mean blood pressure [3]: no significant effects; QTc / QT interval prolongation ([3]; 60 min post-dosing, 5 guinea pigs): did not cause any significant prolongation; also recorded: Neither compound increased; IC50 ([5]; LPS-stimulated BV-2 cells, 16 hrs): > 25 µM |
| c1ccc(-c2cc(-c3ccccc3)c(N3CCN(c4ncccn4)CC3)nn2)cc1 [MW01-5-188WH, 4,6-diphenyl-3-(4-pyrimidin-2-ylpiperazin-1-yl)pyridazine] | – | – | – | – | – | no significant differences | oral bioavailability properties [6]: good oral bioavailability; time of decline to basal levels / bulk clearance, plasma/blood ([6]; po): ≤ 120 min; IC50 ([5]; BV-2, 16 h): > 25 µM |
| c1ccc(-c2cc(-c3ccncc3)c(N3CCN(c4ncccn4)CC3)nn2)cc1 [MW01-6-189WH, 4-pyridyl-6-phenyl-3-(4-pyrimidin-2-ylpiperazin-1-yl)pyridazine] | significantly effective | prevented | trend toward preventing | blocked | blocked | – | liver toxicity score versus control mice (liver histology, mice; C57Bl/6 mice, […] oral, 2 weeks, scale 0 (best) to 9 (worst)): no significant differences |
| Cc1cc(-c2ccccc2)nnc1NCCN1CCOCC1 [minaprinc, minaprine] | – | – | – | – | – | – | brain/blood ratio [7]: about 2 |
